Measured values reported in ChEMBL document CHEMBL1201862, “PubChem BioAssay data set” (2004).
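Protocol summary: plate cells (96-well), add compound at 5 concentrations, incubate 48 h, interpolate endpoints linearly. The concentration for 50% growth inhibition is given as GI50.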 The source made the active and inactive calls. Rule as the data show it: active = GI50 up to about 1.1 µM and inactive = higher.

How the values were obtained:
Experiment in all cases: NCI-60 cell line screen, 48 h
A498 = test system: A498
ACHN = test system: ACHN
BT-549 = test system: BT-549
CAKI-1 = test system: CAKI-1
CCRF-CEM = test system: CCRF-CEM
DU-145 = test system: DU-145
EKVX = test system: EKVX
HOP-62 = test system: HOP-62
K562 = test system: K562
MDA-MB-231 = test system: MDA-MB-231
NCI-H23 = test system: NCI-H23
OVCAR-3 = test system: OVCAR-3
OVCAR-5 = test system: OVCAR-5
RPMI-8226 = test system: RPMI-8226

| SMILES | GI50 (A498) | GI50 (ACHN) | GI50 (BT-549) | GI50 (CAKI-1) | GI50 (CCRF-CEM) | GI50 (DU-145) | GI50 (EKVX) | GI50 (HOP-62) | GI50 (K562) | GI50 (MDA-MB-231) | GI50 (NCI-H23) | GI50 (OVCAR-3) | GI50 (OVCAR-5) | GI50 (RPMI-8226) |
| --- | --- | --- | --- | --- | --- | --- | --- | --- | --- | --- | --- | --- | --- | --- |
| COc1cccc(C(=O)C#Cc2cnc(OC)nc2OC)c1 | 8.69 µM (inactive) | 1.73 µM (inactive) | 0.306 µM (active) | 1.99 µM (inactive) | 0.0286 µM (active) | 5.87 µM (inactive) | 1.72 µM (inactive) | 13.5 µM (inactive) | 0.356 µM (active) | 3.41 µM (inactive) | 1.98 µM (inactive) | 1.81 µM (inactive) | 2.91 µM (inactive) | 2.01 µM (inactive) |
| COc1ccc(/C=C2/SC(c3ccccc3)N(NC(=O)CCCCCCCCC(=O)NN3C(=O)/C(=C\c4ccc(OC)c(OC)c4)SC3c3ccccc3)C2=O)cc1OC (stereo not drawn) | 57.4 µM (inactive) | 25.6 µM (inactive) | > 100 µM (inactive) | 53.6 µM (inactive) |  | > 100 µM (inactive) | 17.1 µM (inactive) | 35 µM (inactive) | 6.59 µM (inactive) | 74.6 µM (inactive) | 38.4 µM (inactive) | > 100 µM (inactive) | > 100 µM (inactive) | 20.7 µM (inactive) |
| CC(C)C(=O)Nc1cc(C(F)(F)F)ccc1[N+](=O)[O-] | > 100 µM (inactive) | > 100 µM (inactive) | > 100 µM (inactive) | > 100 µM (inactive) | > 100 µM (inactive) | > 100 µM (inactive) | > 100 µM (inactive) | > 100 µM (inactive) | 50.9 µM (inactive) | > 100 µM (inactive) | > 100 µM (inactive) | > 100 µM (inactive) | > 100 µM (inactive) | 72.8 µM (inactive) |
| COc1cc(OC)nc(-n2c(N)c(C(=O)O)c3ccc([N+](=O)[O-])cc3c2=O)n1 | > 100 µM (inactive) | > 100 µM (inactive) | > 100 µM (inactive) | > 100 µM (inactive) | 63.1 µM (inactive) | > 100 µM (inactive) | > 100 µM (inactive) | > 100 µM (inactive) | > 100 µM (inactive) | > 100 µM (inactive) | > 100 µM (inactive) | > 100 µM (inactive) | > 100 µM (inactive) | > 100 µM (inactive) |
| C[C@]12CCC(=O)C=C1CC[C@@H]1[C@@H]2[C@@H](O)C[C@@]2(C)[C@H]1CC[C@]2(O)C(=O)COC(=O)C1CCCC1 | > 100 µM (inactive) | > 100 µM (inactive) | > 100 µM (inactive) | > 100 µM (inactive) | 7.73 µM (inactive) | > 100 µM (inactive) | 32.7 µM (inactive) | > 100 µM (inactive) | > 100 µM (inactive) | > 100 µM (inactive) | > 100 µM (inactive) | > 100 µM (inactive) | > 100 µM (inactive) | 1.63 µM (inactive) |
| O=C1c2ccccc2C(=O)c2c1sc1nc3ccccc3n21 | 10.7 µM (inactive) | 2.23 µM (inactive) | 1.98 µM (inactive) | 1.99 µM (inactive) | 1.94 µM (inactive) | 1.75 µM (inactive) | 2.4 µM (inactive) |  | 2.03 µM (inactive) | 2.02 µM (inactive) | 1.29 µM (inactive) | 2.86 µM (inactive) | 2.45 µM (inactive) | 1.33 µM (inactive) |
| COC(=O)[C@]1(C)CCCn2c(=O)n(-c3ccccc3)c(=O)n21 | > 100 µM (inactive) | > 100 µM (inactive) | > 100 µM (inactive) | > 100 µM (inactive) | > 100 µM (inactive) | > 100 µM (inactive) | > 100 µM (inactive) | > 100 µM (inactive) | > 100 µM (inactive) | > 100 µM (inactive) | > 100 µM (inactive) | > 100 µM (inactive) | > 100 µM (inactive) | > 100 µM (inactive) |
| Fc1ccc(C(OCCN2CCN(CCCc3ccccc3)CC2)c2ccc(F)cc2)cc1 | 6.97 µM (inactive) | 5.82 µM (inactive) | 7.05 µM (inactive) | 4.06 µM (inactive) | 4.5 µM (inactive) | 5.97 µM (inactive) | 4.17 µM (inactive) | 5.32 µM (inactive) | 3.05 µM (inactive) | 3.15 µM (inactive) | 4.04 µM (inactive) | 4.15 µM (inactive) | 4.5 µM (inactive) | 2.58 µM (inactive) |
| CC(C)C1(O)C(=O)N(c2c(F)c(F)c(F)c(F)c2F)C(=S)N1CCSc1ccccc1 (stereo not drawn) | 16.3 µM (inactive) | 17.5 µM (inactive) | 16.1 µM (inactive) | 12.2 µM (inactive) | 13.9 µM (inactive) | 17.1 µM (inactive) | 18.8 µM (inactive) | 18.5 µM (inactive) | 13 µM (inactive) | 13.1 µM (inactive) | 18.1 µM (inactive) | 16.4 µM (inactive) | 18.7 µM (inactive) | 10.9 µM (inactive) |
| S=C(N/N=C/c1ccccn1)N1CCCCCC1 | < 0.0391 µM (active) | < 0.01 µM (active) | < 0.01 µM (active) | < 0.0423 µM (active) | < 0.01 µM (active) | 0.115 µM (active) | < 0.0294 µM (active) | < 0.01 µM (active) | < 0.01 µM (active) | < 0.01 µM (active) | < 0.01 µM (active) | < 0.01 µM (active) | < 0.0458 µM (active) | < 0.01 µM (active) |
| COC(=O)C1(OC(=O)Sc2ccccc2)CCN(C)CC1 | 21.8 µM (inactive) | 15.7 µM (inactive) | 1.5 µM (inactive) | 4.95 µM (inactive) | 1.84 µM (inactive) | 23.8 µM (inactive) | 9.1 µM (inactive) | 32.1 µM (inactive) | 22.4 µM (inactive) | 16.9 µM (inactive) | 14.1 µM (inactive) | 11 µM (inactive) | 35.3 µM (inactive) | 6.38 µM (inactive) |
| C=C1CC[C@](C)(O)[C@@]2(C)CC[C@H]3C(=C(C)C)C(=O)C[C@]3(C)C[C@H]12 | > 50 µM (inactive) | 42.8 µM (inactive) | 25.8 µM (inactive) | 22.4 µM (inactive) | 10.9 µM (inactive) | > 50 µM (inactive) | > 50 µM (inactive) | > 50 µM (inactive) | 8.73 µM (inactive) | > 50 µM (inactive) | > 50 µM (inactive) | 29.9 µM (inactive) | > 50 µM (inactive) | 17.9 µM (inactive) |
| C/C(=N\NC(=O)c1ccncc1)c1sc(-n2nc(-c3ccccc3)cc2-c2ccccc2)nc1C | > 100 µM (inactive) | > 31.6 µM (inactive) | > 31.6 µM (inactive) | 98.4 µM (inactive) | > 31.6 µM (inactive) | > 31.6 µM (inactive) | 47.8 µM (inactive) | > 31.6 µM (inactive) | 59.6 µM (inactive) | > 63 µM (inactive) | > 31.6 µM (inactive) | 25.1 µM (inactive) | > 31.6 µM (inactive) | 20.7 µM (inactive) |
| Fc1cccc(C2ON=C(c3ccccc3)N2C23CC4CC(CC(C4)C2)C3)c1 (stereo not drawn) | > 10 µM (inactive) | > 10 µM (inactive) | > 10 µM (inactive) | > 10 µM (inactive) |  | > 10 µM (inactive) | > 10 µM (inactive) | > 10 µM (inactive) | > 10 µM (inactive) | > 10 µM (inactive) | > 10 µM (inactive) | > 10 µM (inactive) | > 10 µM (inactive) | 8.77 µM (inactive) |
